In PubChem BioAssay (NCI):
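Cultured in 96-well plates, cells were exposed to test compound for 48 hours across five concentrations. GI50 = concentration required for 50% inhibition of growth. TGI: concentration producing complete growth inhibition.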

How the values were obtained:
Assay in all cases: NCI anticancer screen, dose series, 48 h
BT-549 breast = tested on: BT-549 breast
NCI-H226 lung = tested on: NCI-H226 lung
HCT-116 colon = tested on: HCT-116 colon
CAKI-1 renal = tested on: CAKI-1 renal
SN12C renal = tested on: SN12C renal
KM12 colon = tested on: KM12 colon
SF-539 CNS = tested on: SF-539 CNS
OVCAR-5 ovarian = tested on: OVCAR-5 ovarian
OVCAR-4 ovarian = tested on: OVCAR-4 ovarian
HOP-62 NSCLC = tested on: HOP-62 NSCLC

SMILES	GI50 (BT-549 breast)	TGI (BT-549 breast)	GI50 (NCI-H226 lung)	TGI (NCI-H226 lung)	GI50 (HCT-116 colon)	TGI (HCT-116 colon)	GI50 (CAKI-1 renal)	TGI (CAKI-1 renal)	GI50 (SN12C renal)	TGI (SN12C renal)	GI50 (KM12 colon)	TGI (KM12 colon)	GI50 (SF-539 CNS)	TGI (SF-539 CNS)	GI50 (OVCAR-5 ovarian)	TGI (OVCAR-5 ovarian)	GI50 (OVCAR-4 ovarian)	TGI (OVCAR-4 ovarian)	GI50 (HOP-62 NSCLC)	TGI (HOP-62 NSCLC)
S=C1Nc2ccc(Cl)cc2C2(c3ccccc3)N3CCN=C3NN12 (stereo not given)	30.8 µM	> 100 µM	33.9 µM	> 100 µM	29.4 µM	> 100 µM	48.8 µM	> 100 µM	35.3 µM	> 100 µM	52.1 µM	> 100 µM	36.7 µM	> 100 µM	82.7 µM	> 100 µM	26.1 µM	> 100 µM	33.3 µM	> 100 µM
CCN1c2ccccc2C(Cl)(c2ccc(N(C)C)cc2)c2ccccc21	12 µM	29 µM	14.6 µM	34.5 µM	2.66 µM	10.3 µM	14.5 µM	49.4 µM	4.88 µM	19.2 µM	4.41 µM	15.6 µM	15.5 µM	29.2 µM	17.7 µM	34.9 µM	11.9 µM	25.3 µM	4.27 µM	17.3 µM
C=CC1CC12C(=O)C1OC2(C)C2C(=O)c3c(O)ccc(O)c3C(=O)C12 (stereo not given)	10.2 µM	26.3 µM	5.8 µM	14.2 µM	4.66 µM	9.03 µM	0.402 µM	1.65 µM	3.2 µM	11.6 µM	5.83 µM	17.3 µM	4.5 µM	14.8 µM	5.69 µM	12 µM	7.84 µM	25.6 µM	9.66 µM	25 µM
C/C(=N\N=C(/[Se])N1CC2CCC(CC2)C1)c1ccccn1	–	1.63 µM	–	1.88 µM	–	0.878 µM	–	1.95 µM	–	2.57 µM	–	1.54 µM	–	1.2 µM	–	2.51 µM	–	2.56 µM	–	1.92 µM
CC(=O)O/N=C1/C(c2c(O)[nH]c3cc(Br)ccc23)=Nc2ccccc21	1.28 µM	3.5 µM	1.45 µM	4.74 µM	1.05 µM	2.67 µM	0.275 µM	2.04 µM	0.873 µM	2.58 µM	0.398 µM	1.91 µM	0.818 µM	3.13 µM	2.51 µM	4.17 µM	1.6 µM	3.93 µM	2.05 µM	4.53 µM
O=C(c1ccco1)c1c(C(F)(F)F)n([O-])c2ccccc2[n+]1=O	1.31 µM	3.81 µM	0.665 µM	4.31 µM	0.434 µM	8.52 µM	1.13 µM	3.94 µM	0.618 µM	3.1 µM	0.911 µM	8.18 µM	0.28 µM	0.712 µM	3.68 µM	13.4 µM	5.45 µM	15.4 µM	0.949 µM	4.34 µM
COc1cc(/C=C2\CCC(CN(C)C)C2=O)ccc1OC(=O)c1ccccc1 (stereo not given)	–	30 µM	–	33.8 µM	–	22.1 µM	–	32.5 µM	–	25.1 µM	–	13.7 µM	–	30.4 µM	–	33.8 µM	–	25.5 µM	–	23.5 µM
Cc1ccc2c(c1)NC(=O)CC(c1ccccc1)=N2	–	> 100 µM	–	> 100 µM	–	> 100 µM	–	> 100 µM	–	> 100 µM	–	> 100 µM	–	> 100 µM	–	> 100 µM	–	> 100 µM	–	> 100 µM
O=c1[nH]cnc2[nH]ncc12	578 µM	> 5000 µM	878 µM	> 5000 µM	444 µM	> 5000 µM	97.2 µM	> 5000 µM	485 µM	> 5000 µM	1250 µM	> 5000 µM	2010 µM	> 5000 µM	486 µM	> 1550 µM	160 µM	> 3050 µM	353 µM	> 5000 µM
COc1ccc2c(c1)C(c1ccccc1Cl)=Nc1c(n[nH]c1C)N2	> 21.2 µM	> 25 µM	3.28 µM	> 25 µM	11.2 µM	> 25 µM	> 8.82 µM	> 25 µM	> 20.3 µM	> 25 µM	0.995 µM	> 25 µM	4.95 µM	> 18.8 µM	> 25 µM	> 25 µM	> 25 µM	> 25 µM	> 25 µM	> 25 µM
CSc1ccc2c3c(n(C[C@H](O)CO)c(=O)c2c1)-c1ccccc1C3=O	2.77 µM	22.8 µM	1.86 µM	5.31 µM	0.742 µM	2.35 µM	1.11 µM	5.74 µM	1.94 µM	13.6 µM	2.26 µM	10.3 µM	2.36 µM	7.37 µM	3.1 µM	10.6 µM	6.38 µM	> 100 µM	1.83 µM	7.27 µM
